“And” between values parts separate entries of the source, which are not always exact repeats. Equal entries are not always repeated.
What was measured:
[1] = UV-Vis absorbance spectra; type: physicochemical; conditions: 25 μM in HBSS buffer with 1% DMSO
Method: (§1) Solubility in buffer was explored for all compounds using nephelometry ([Bevan and Lloyd, 2000]) and these studies indicate good solubility of all azobenzene photoswiches up to at least 100 μM (Figure S1). […] For all compounds, 360 nm induces a large change in absorbance spectrum compared with the non-illuminated (dark) compounds (Table 1, Figure 2A, and S1), indicating photoisomerization to the cis-isomer. The absorbance peak (λmax) of Opto-prop-1-3 ranged between 319 and 347 nm for the trans-isomers and between 423 and 429 for the cis-isomers (Table 1), as is typical for azobenzene compounds ([Hauwert et al., 2018]). […] The photochemical conversions were determined by continuous illumination of the Opto-prop compounds with near UV-light (360 ± 20 nm) as 10-mM solutions in DMSO. Based on LCMS analysis, it was observed that all compounds obtained a high level of conversion to the cis-isomer with a photostationary state (PSS) of >88 area % cis-isomer (i.e. PSScis; Table 1). Subsequent back-switching to PSStrans with 434 nm maintained 22–29 area % cis-isomer (Table 1). The thermal relaxation of the PSScis state of the photoswitchable ligands was monitored over time by measuring absorbance at 254 nm. Only minor thermal relaxation to the trans-isomer could be detected at 20°C (not shown). An estimate of the relaxation rate at 20 °C was determined using a method by Priimagi et al. ([Ahmed et al., 2017]), which was performed in Hanks’ balanced salt solution (HBSS) using increased temperatures to enhance the speed of thermal relaxation. The Opto-prop ligands are all very stable as cis-isomer after illumination, with thermal relaxation half-lives of >10 days at 20 °C (See Table 1 and Figure S1).
UV-Vis spectra were obtained using a Thermo-scientific Evolution 201 PC spectrophotometer. Illumination was executed using a Sutter instruments Lambda LS with a 300 Watt full-spectrum lamp connected to a Sutter instruments Lambda 10-3 optical filter changer equipped with 360 ± 20 nm, 400 ± 5 nm, 434 ± 9 nm and 460 ± 5 nm filters. The light intensity is 0.93 mW/mm^2 using the 360 ± 20 nm filter, 0.22 mW/mm^2 using the 400 ± 5 nm filter, 0.79 mW/mm^2 for the 434 ± 9 nm filter and 0.26 mW/mm^2 for the 460 ± 5 nm filter as measured using a Thorlabs PM16-401 power meter.
For the determination of the UV-Vis spectra shown in Figure 2A, compounds (25 μM in 1% DMSO/HBSS buffer) were illuminated in Hellma Suprasil quartz 114-QS cuvettes with either a 360, 400, 434 or 460 nm filter for the indicated time. For the determination of PSScis and PSStrans states by UV spectroscopy (Figures S1D–S1F), a solution of the compound in 1% DMSO/HBSS buffer (25 μM) in a vial was illuminated to PSS cis with 360 nm (typically 4–5 min) and subsequently to PSS trans with 434 nm (typically 2–5 min). UV spectra were recorded.

[2] = PSScis and PSStrans by LC analysis; type: physicochemical; conditions: LCMS area at isosbestic wavelength
Method: as §1
For the determination of PSScis and PSStrans values by LC analysis (Table 1), a solution of the compound in DMSO (10 mM) was illuminated to PSScis with 360 nm and subsequently to PSStrans with 434 nm. PSS aliquots were withdrawn, diluted with MeCN and subjected to LCMS analysis with the corresponding isosbestic points wavelength: 278, 263 and 308 nm for Opto-prop-1-3, respectively.

[3] = target: T1, β2-AR (Homo sapiens, UniProt P07550); assay: Conformational β2-AR BRET sensor in HEK293A cells
Target sequence in this assay (P07550 1-369): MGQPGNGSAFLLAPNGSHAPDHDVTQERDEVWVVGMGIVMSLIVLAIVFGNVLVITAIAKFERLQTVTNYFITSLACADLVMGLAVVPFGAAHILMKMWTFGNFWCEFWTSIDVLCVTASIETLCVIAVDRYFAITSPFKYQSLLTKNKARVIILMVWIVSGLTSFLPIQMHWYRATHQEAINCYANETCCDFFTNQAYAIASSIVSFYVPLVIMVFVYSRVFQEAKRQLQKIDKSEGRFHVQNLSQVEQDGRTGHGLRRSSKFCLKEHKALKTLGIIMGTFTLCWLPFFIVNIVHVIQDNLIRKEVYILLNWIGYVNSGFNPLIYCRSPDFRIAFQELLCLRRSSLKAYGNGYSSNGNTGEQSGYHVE
Method: The next day, cells were washed with HBSS and incubated with a 1/1000 stock solution of furimazine. […] Wells pre-incubated with 0.1% DMSO/HBSS control were treated with vehicle control.
Raw BRET ratios were defined as acceptor emission/donor emission.
Antagonist pKB values were calculated using the agonist potency and concentration together with the antagonist IC50 values, using the Cheng-Prusoff equation.

[4] = target: T1, β2-AR; assay: NanoBiT complementation: mini-Gαs recruitment to β2-AR, Schild analysis
Target sequence in this assay (P07550 whole entry): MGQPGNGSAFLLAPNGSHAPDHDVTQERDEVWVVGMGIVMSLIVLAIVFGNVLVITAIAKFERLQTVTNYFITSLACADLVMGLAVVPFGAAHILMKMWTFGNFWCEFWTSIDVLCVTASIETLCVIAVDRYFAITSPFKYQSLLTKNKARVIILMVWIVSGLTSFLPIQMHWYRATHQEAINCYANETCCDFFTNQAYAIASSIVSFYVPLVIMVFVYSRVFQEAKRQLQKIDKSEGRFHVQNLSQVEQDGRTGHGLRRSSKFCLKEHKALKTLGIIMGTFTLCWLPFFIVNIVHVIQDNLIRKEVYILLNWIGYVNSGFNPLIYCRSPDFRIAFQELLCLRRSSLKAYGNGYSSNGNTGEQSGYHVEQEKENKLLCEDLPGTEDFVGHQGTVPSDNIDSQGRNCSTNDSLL
Method: (§2) Mixed stable populations of HEK-β2AR-β-arrestin2, or HEK-β2AR-mGs cells were generated by selection in G418 (0.8 mg^−1) and zeocin (200 μg mL^−1) for 7–10 days, in DMEM, supplemented with 10% fetal bovine serum (FBS; Sigma Aldrich).
(§3) The antagonist affinity (KD) was then estimated by a Schild plot of log [CR-1] against log [B] (the antagonist concentration) using the relationship: Log[CR−1]=Log[B]−LogKD.

[5] = target: T1, β2-AR; assay: NanoBiT complementation: β-arrestin2 recruitment to β2-AR, Schild analysis
Target sequence in this assay (P07550 whole entry): as above
Method: as §2, §3

[6] = target: β1-AR (Homo sapiens, UniProt P08588); assay: [3H]DHA radioligand displacement on membranes of HEK293T cells expressing β1-AR; conditions: for Ki: β1-AR
β1-AR, sequence (P08588 whole entry): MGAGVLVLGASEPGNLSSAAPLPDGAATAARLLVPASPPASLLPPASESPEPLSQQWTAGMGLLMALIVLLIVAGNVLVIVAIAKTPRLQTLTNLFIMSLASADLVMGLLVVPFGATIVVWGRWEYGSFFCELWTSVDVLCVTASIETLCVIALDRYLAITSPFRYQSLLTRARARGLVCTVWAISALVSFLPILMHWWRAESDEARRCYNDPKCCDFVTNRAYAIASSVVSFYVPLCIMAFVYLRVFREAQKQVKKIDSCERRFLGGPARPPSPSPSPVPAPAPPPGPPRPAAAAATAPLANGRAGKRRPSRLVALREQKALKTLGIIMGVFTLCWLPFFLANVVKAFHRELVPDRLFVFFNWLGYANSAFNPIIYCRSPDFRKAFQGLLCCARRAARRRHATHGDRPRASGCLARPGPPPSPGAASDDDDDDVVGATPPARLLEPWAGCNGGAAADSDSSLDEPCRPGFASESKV
Method: (§4) Membranes of HEK293T-cells transiently expressing the receptor of interest were co-incubated with the tritiated β1/β2-AR antagonist dihydroalprenolol ([^3H]DHA, Figure S2 depicts saturation binding experiments), together with increasing concentrations of the competing unlabeled ligand.
(§5) Two million HEK293T cells were seeded in a 10cm^2 dish and were transiently transfected the next day with 1 μg human β1-AR or the β2-AR plasmid DNA, 4 μg empty pcDEF3 plasmid DNA and 30 μg linear 25 kDa polyethyleneimine (PEI; Polysciences Warrington, USA) in a 150 mM NaCl solution. […] Two days after transfection, cells were resuspended and washed (3 times) with PBS and pelleted by centrifugation steps at 1500 g. After the final centrifugation step, cell pellets were reconstituted into ice-cold Tris-HCl buffer (15 mM, supplemented with 0.3 mM EDTA and 2 mM MgCl2 at pH7.4) and dounce-homogenised by plunging the pestle 10 times with 1,500 rpm (Tamson, the Netherlands). The homogenates were frozen and thawed twice using liquid nitrogen, after which the membranes were isolated using an ultra-centrifuge L70 at 40,000 g (Beckman Coulter, USA). Cell pellets were then washed and reconstituted in ice-cold 20 mM Tris-HCl buffer supplemented with 250 mM Sucrose at pH 7.4. Finally, the membrane samples where homogenized using a 23-gauge needle, snap-frozen with liquid nitrogen and stored until further experimentation at −80 °C. The protein content was determined using a BCA protein assay kit (Thermo Scientific, USA).
(§6) On the day of the experiment 0.25–0.5 μg membranes expressing either the β1-AR or the β2-AR, were co-incubated with [^3H]DHA (Perkin Elmer, USA) and increasing concentrations unlabeled ligand in HBSS buffer (Thermo Scientific, with Ca^2+ and Mg^2+) supplemented with 0.1% BSA for 1 h at 25 °C under gentile agitation. Either a 4 nM or 1 nM concentration of [^3H]DHA was used in combination with membranes expressing either the β1-AR or β2-AR, respectively. Binding reactions were terminated by filtration over a PEI coated GF/C filter (Perkin Elmer) using ice-cold 50 mM Tris-HCl buffer with 500 mM NaCl at pH 7.4. GF/C plates were dried at 52 °C and filter bound [^3H]DHA was quantified by adding 25 μL/well Microscint-O scintillation liquid and counting luminescence using the Wallac Microbeta counter, as described before.
(§7) IC50 values were determined by fitting the concentration-dependent displacement of [^3H]DHA by unlabeled ligands, with a three-parameter sigmoidal model in GraphPad Prism. […] Competition binding graphs represent the pooled data of ≥3 experiments, normalized to the fitted top and bottom of the reference sigmoidal displacement curve of unlabeled DHA.

[7] = target: T1, β2-AR; assay: [3H]DHA radioligand displacement on membranes of HEK293T cells expressing β2-AR; conditions: for Ki: β2-AR
Target sequence in this assay (P07550 whole entry): as the sequence (P07550 whole entry) above
Method: as §4, §5, §6, §7

[8] = at PSScis, agonist isoprenaline
[9] = fold difference between Ki of trans and Ki at PSScis
[10] = isomer state with higher affinity
[11] = pKi PSScis, illuminated to PSScis (360 nm) before experiment
[12] = pKi trans, without prior illumination (trans-isomer)

CC(C)NCC(O)COc1cccc(N=Nc2ccccc2)c1 (stereo not drawn) [Opto-prop-2]
λmax cis ([1]; cis-isomer): 424 nm | λmax trans ([1]; trans-isomer): 319 nm | PSScis (% cis-isomer) ([2]; 10 mM in DMSO after illumination with 360 nm): 92.8 ± 0.4 % cis-isomer | PSStrans (% cis-isomer) ([2]; 10 mM in DMSO, 360 nm then 434 nm): 26 % cis-isomer and 25.9 ± 0.4 % cis-isomer | IC50 [3]: 31.6 nM | Kb [3]: 2 nM | Kb [4]: 25.1 nM | slope of the Schild-plot, mini-Gαs recruitment [4, 8]: 1.2 | Kb [5]: 25.1 nM | slope of the Schild-plot, β-arrestin2 recruitment [5, 8]: 0.9 | fold Ki trans vs PSScis at β1-AR [6, 9]: 21 fold | Active state at β1-AR [6, 10]: cis | Ki [6, 11]: 200 nM | Ki [6, 12]: 5010 nM | difference in binding affinity β2-AR vs β1-AR ([7]; cis-isomer): 1.9 log unit | selectivity in binding β2-AR over β1-AR ([7]; cis-isomer (PSScis)): 78 fold | fold Ki trans vs PSScis at β2-AR [7, 9]: 587 fold | Active state at β2-AR [7, 10]: cis | Ki [7, 11]: 2.51 nM | Ki ([7]; pKi at PSStrans, at PSStrans (434 nm back-switching)): 31.6 nM | Ki [7, 12]: 1580 nM

From PMC9436767, “Optical control of the β2-adrenergic receptor with opto-prop-2: A cis-active azobenzene analog of propranolol” (iScience, 2022)
